Here are results for twelve compounds from ChEMBL document CHEMBL1275583, “First report of KPC-2-producing Klebsiella pneumoniae strains in Brazil” (2009).

In brackets after ≈: the same amount, converted by molar mass.

For assay [1], the system named is Escherichia coli. Description: microbe, parasite or virus in culture. The conditions noted are these: K-12 DH10B.
Description: (§1) Antibacterial activity against Escherichia coli DH10B expressing KPC-2 CTX-M-2 by agar dilution method
The test system of assay [2] is Klebsiella pneumoniae. Description: Antibacterial activity against Klebsiella pneumoniae urine isolate A28011 PFGE pattern A expressing KPC-2 CTX-M-2 beta-lactamase by agar dilution method. The format is functional. On the technique in general: In agar dilution, organisms are placed on agar that contains the substance at set levels.
Assay [3] has as its system Klebsiella pneumoniae. Description: Antibacterial activity against Klebsiella pneumoniae urine isolate A28009 PFGE pattern A expressing KPC-2, TEM-1, SHV-11, CTX-M-2 beta-lactamase by agar dilution method. The format is functional.
Assay [4] deals with Klebsiella pneumoniae. Put plainly: Antibacterial activity against Klebsiella pneumoniae blood isolate A28008 PFGE pattern A expressing KPC-2, TEM-1, SHV-11, CTX-M-2 beta-lactamase by agar dilution method. The assay is classed as functional.
Assay [5] deals with Escherichia coli. Put plainly: Antibacterial activity against Escherichia coli DH10B by agar dilution method. The format is functional. To be noted: K-12 DH10B.
For assay [6], the system named is Klebsiella pneumoniae. Put plainly: Antibacterial activity against Klebsiella pneumoniae blood isolate A28006 PFGE pattern A expressing KPC-2, TEM-1, SHV-11, CTX-M-2 beta-lactamase by agar dilution method. The format is functional.
In assay [7] the test system is Klebsiella pneumoniae. Put plainly: Antibacterial activity against Klebsiella pneumoniae blood isolate A28008 PFGE pattern A expressing KPC-2, TEM-1, SHV-11, CTX-M-2 beta-lactamase by agar dilution method in presence of Tazobactam. The assay is classed as functional.
Assay [8] deals with Klebsiella pneumoniae. Description: Antibacterial activity against Klebsiella pneumoniae urine isolate A28011 PFGE pattern A expressing KPC-2, CTX-M-2 beta-lactamase by agar dilution method in presence of Tazobactam. The assay is classed as functional.
In assay [9] the test system is Klebsiella pneumoniae. Description: Antibacterial activity against Klebsiella pneumoniae urine isolate A28009 PFGE pattern A expressing KPC-2, TEM-1, SHV-11, CTX-M-2 beta-lactamase by agar dilution method in presence of Tazobactam. The format is functional.
Assay [10] relates to Klebsiella pneumoniae. Description: Antibacterial activity against Klebsiella pneumoniae blood isolate A28006 PFGE pattern A expressing KPC-2, TEM-1, SHV-11, CTX-M-2 beta-lactamase by agar dilution method in presence of Tazobactam. The format is functional.
Assay [11] deals with Escherichia coli. To be noted: K-12 DH10B.
Description: as §1
The subject of assay [12] is Klebsiella pneumoniae. Description: Antibacterial activity against Klebsiella pneumoniae blood isolate A28008 PFGE pattern A expressing KPC-2, TEM-1, SHV-11, CTX-M-2 beta-lactamase by Etest method. The assay is classed as functional.
The subject of assay [13] is Escherichia coli. Description: Antibacterial activity against Escherichia coli DH10B by Etest method. The format is functional. The conditions noted are these: K-12 DH10B.
The subject of assay [14] is Escherichia coli. Put plainly: Antibacterial activity against Escherichia coli DH10B expressing KPC-2 CTX-M-2 by Etest method. To be noted: K-12 DH10B. The assay is classed as functional.
The test system of assay [15] is Klebsiella pneumoniae. Description: Antibacterial activity against Klebsiella pneumoniae urine isolate A28011 PFGE pattern A expressing KPC-2, CTX-M-2 beta-lactamase by Etest method. The format is functional.
Assay [16] relates to Klebsiella pneumoniae. Description: Antibacterial activity against Klebsiella pneumoniae blood isolate A28006 PFGE pattern A expressing KPC-2, TEM-1, SHV-11, CTX-M-2 beta-lactamase by Etest method. The format is functional.
In assay [17] the test system is Klebsiella pneumoniae. Description: Antibacterial activity against Klebsiella pneumoniae urine isolate A28009 PFGE pattern A expressing KPC-2, TEM-1, SHV-11, CTX-M-2 beta-lactamase by Etest method. The format is functional.

Regarding `C[C@H]1[C@H](NC(=O)/C(=N\OC(C)(C)C(=O)O)c2csc(N)n2)C(=O)N1S(=O)(=O)O` [AZTREONAM], the MIC in the assay on Escherichia coli [1] is 32 µg/mL (≈ 73.5 µM); against Klebsiella pneumoniae [2] it was more than 256 µg/mL; in the assay on Klebsiella pneumoniae [3], more than 256 µg/mL; against Klebsiella pneumoniae [4], 64 µg/mL (≈ 147 µM).

Regarding `C[C@@H](O)[C@H]1C(=O)N2C(C(=O)O)=C(S[C@@H]3CN[C@H](C(=O)N(C)C)C3)[C@H](C)[C@H]12` [MEROPENEM], the MIC against Escherichia coli [5] was 0.25 µg/mL (≈ 0.652 µM); against Escherichia coli [1] it was 0.5 µg/mL (≈ 1.3 µM); with Klebsiella pneumoniae [2], more than 32 µg/mL; in the assay with Klebsiella pneumoniae [6] it was 32 µg/mL (≈ 83.4 µM); against Klebsiella pneumoniae [3] it was more than 32 µg/mL; with Klebsiella pneumoniae [4], 4 µg/mL (≈ 10.4 µM).

Turning to `CCN1CCN(C(=O)N[C@@H](C(=O)N[C@@H]2C(=O)N3[C@@H]2SC(C)(C)[C@@H]3C(=O)O)c2ccccc2)C(=O)C1=O` [PIPERACILLIN], the MIC with Klebsiella pneumoniae [7] was 16 µg/mL; in the assay with Klebsiella pneumoniae [8] it was 8 µg/mL; with Klebsiella pneumoniae [9], 16 µg/mL; with Klebsiella pneumoniae [10] it was 16 µg/mL.

Take `CO[C@@]1(NC(=O)Cc2cccs2)C(=O)N2C(C(=O)O)=C(COC(N)=O)CS[C@@H]21` [CEFOXITIN]: the MIC in the assay with Escherichia coli [5] is 4 µg/mL (≈ 9.36 µM); in the assay on Escherichia coli [1] it was 8 µg/mL (≈ 18.7 µM); with Klebsiella pneumoniae [2], more than 256 µg/mL; in the assay on Klebsiella pneumoniae [6], 32 µg/mL (≈ 74.9 µM); in the assay with Klebsiella pneumoniae [3] it was 64 µg/mL (≈ 150 µM); against Klebsiella pneumoniae [4], 16 µg/mL (≈ 37.4 µM).

Turning to `CO/N=C(\C(=O)N[C@@H]1C(=O)N2C(C(=O)O)=C(CSc3nc(=O)c(O)nn3C)CS[C@H]12)c1csc(N)n1` [CEFTRIAXONE], the MIC against Escherichia coli [5] was 0.06 µg/mL (≈ 0.108 µM); against Escherichia coli [1], more than 256 µg/mL; with Klebsiella pneumoniae [2], more than 256 µg/mL; with Klebsiella pneumoniae [6] it was more than 256 µg/mL; in the assay with Klebsiella pneumoniae [3], more than 256 µg/mL; with Klebsiella pneumoniae [4], more than 256 µg/mL.

Regarding POLYMYXIN B, the MIC against Escherichia coli [5] came out at 0.38 µg/mL; with Klebsiella pneumoniae [2], 2 µg/mL; in the assay with Klebsiella pneumoniae [6], 2 µg/mL; in the assay with Klebsiella pneumoniae [3], 2 µg/mL; in the assay with Escherichia coli [11] it was 0.38 µg/mL; against Klebsiella pneumoniae [4], 2 µg/mL.

As for `C[C@@H](O)[C@H]1C(=O)N2C(C(=O)O)=C(SCCNC=N)C[C@H]12` [IMIPENEM ANHYDROUS], the MIC in the assay on Escherichia coli [1] is 2 µg/mL (≈ 6.68 µM); against Klebsiella pneumoniae [2], 16 µg/mL (≈ 53.4 µM); against Klebsiella pneumoniae [6], 4 µg/mL (≈ 13.4 µM); against Klebsiella pneumoniae [3], 32 µg/mL (≈ 107 µM); in the assay with Klebsiella pneumoniae [4] it was 32 µg/mL (≈ 107 µM).

With `CC(C)(O/N=C(\C(=O)N[C@@H]1C(=O)N2C(C(=O)[O-])=C(C[n+]3ccccc3)CS[C@H]12)c1csc(N)n1)C(=O)O` [CEFTAZIDIME], the MIC in the assay on Escherichia coli [5] is 0.25 µg/mL (≈ 0.457 µM); against Escherichia coli [1] it was 4 µg/mL (≈ 7.32 µM); with Klebsiella pneumoniae [2], 64 µg/mL (≈ 117 µM); against Klebsiella pneumoniae [6], 16 µg/mL (≈ 29.3 µM); against Klebsiella pneumoniae [3] it was 32 µg/mL (≈ 58.5 µM); against Klebsiella pneumoniae [4], 16 µg/mL (≈ 29.3 µM).

In the case of `CO/N=C(\C(=O)N[C@@H]1C(=O)N2C(C(=O)O)=C(COC(C)=O)CS[C@H]12)c1csc(N)n1` [CEFOTAXIME], the MIC is less than 0.25 µg/mL against Escherichia coli [5]; 4 µg/mL (≈ 8.78 µM) in the assay on Escherichia coli [1]; more than 256 µg/mL against Klebsiella pneumoniae [2]; more than 256 µg/mL in the assay on Klebsiella pneumoniae [6]; more than 256 µg/mL in the assay with Klebsiella pneumoniae [3]; more than 256 µg/mL against Klebsiella pneumoniae [4].

Take GENTAMICIN: the MIC was 0.12 µg/mL with Escherichia coli [5]; 1 µg/mL in the assay on Klebsiella pneumoniae [2]; 1 µg/mL in the assay on Klebsiella pneumoniae [6]; 1 µg/mL in the assay with Klebsiella pneumoniae [3]; 0.12 µg/mL in the assay on Escherichia coli [11]; 1 µg/mL against Klebsiella pneumoniae [4].

In the case of `CN(C)c1cc(NC(=O)CNC(C)(C)C)c(O)c2c1C[C@H]1C[C@H]3[C@H](N(C)C)C(O)=C(C(N)=O)C(=O)[C@@]3(O)C(O)=C1C2=O` [TIGECYCLINE], the MIC against Klebsiella pneumoniae [12] is 0.38 µg/mL (≈ 0.649 µM); with Escherichia coli [13], 0.06 µg/mL (≈ 0.102 µM); in the assay with Escherichia coli [14], 0.06 µg/mL (≈ 0.102 µM); in the assay with Klebsiella pneumoniae [15] it was 0.5 µg/mL (≈ 0.854 µM); against Klebsiella pneumoniae [16] it was 0.38 µg/mL (≈ 0.649 µM); against Klebsiella pneumoniae [17], 0.38 µg/mL (≈ 0.649 µM).

With `CO/N=C(\C(=O)N[C@@H]1C(=O)N2C(C(=O)[O-])=C(C[N+]3(C)CCCC3)CS[C@H]12)c1csc(N)n1`, the MIC in the assay with Escherichia coli [5] is 0.25 µg/mL (≈ 0.52 µM); in the assay with Escherichia coli [1], 2 µg/mL (≈ 4.16 µM); in the assay with Klebsiella pneumoniae [2], more than 256 µg/mL; with Klebsiella pneumoniae [6] it was 128 µg/mL (≈ 266 µM); in the assay on Klebsiella pneumoniae [3], 64 µg/mL (≈ 133 µM); with Klebsiella pneumoniae [4], 32 µg/mL (≈ 66.6 µM).
